Experimental data as given in PMC13242511, “Disrupting Notch signalling by a small molecule inhibiting dihydroorotate dehydrogenase activity” (Scientific Reports, 2026).
Read-outs that look alike come from different tables or passages of the source.

What was measured:
γ-secretase complex = γ-secretase complex (Homo sapiens, UniProt P49768); assay: APP-C99 counter assay (GSI reporter assay); type: cell-based; set-up: AUC APP: scale not given here; details: for Hill-slope / curve fit information: 14p APP assay DR, bottom constrained to Emax of positive control LY-411575; for AUC APP: area under the 14-point dose-response curve, replicates averaged
Method: To this end, we used a previously established reporter gene-based GSI assay (APP-C99) (Fig. 3A), which measures γ-secretase activity through cleavage of amyloid precursor protein (APP), another protein processed by the γ-secretase complex[24]
Plasmids for APP and luciferase are described in[24] and the renilla plasmid described above generated for this project was used to normalize firefly values. 24 h post transfection cells were seeded on compound plates and cells were cultivated for 24 h before luciferase signals were read, as described.
Two-fold concentrations of compounds were diluted in 10 µl cell culture medium and brought to one-fold by seeding 10 µl containing 4000 cells of the respective cell type on each well of a 384-well plate, as described above. Analogous to the previous assays, all plates contained one DMSO and DAPT control column with the Notch reporter cell line (#A1-11) and a DMSO only and Notch inhibitor control plate was read before the measuring the screening plates. In addition, DAPT and DMSO were spotted in a dose response fashion, and a minimum of four replicates were read. Dose-responses of compounds were recorded in triplicates for each concentration reading out the dual luciferase reporters, as described above. Dose response assays were read together in one session. To measure compound effects, the different assays dose–response curves were fitted using the log(inhibitor) vs. response – Variable slope (model: Y = Bottom + (Top–Bottom)/(1 + 10^((LogIC50-X)*HillSlope)) equation.
A DMSO plate was read before measuring luciferase activity of compound spotted plates. APP firefly luciferase reporter assays were read with a signal integration time of 0.1 s, instead of 0.5 s used for the Notch reporter to reduce signal overlap between wells. […] The area-under-the-curve (AUC) was calculated on dose–response curves using Graphpad Prism.

Notch signalling = assay: Notch reporter assay (12xCSL firefly luciferase / renilla luciferase, HEK293T Notch1ΔE reporter cell line clone #A1-11); type: cell-based; set-up: AUC Notch: scale not given here; details: for Bottom (Emax): Emax indicated independent from assay constraints, in % (unit assumed); for AUC Notch: area under the 14-point dose-response curve, replicates averaged
From the text: To identify novel Notch inhibitors in an unbiased manner, we generated a novel Notch reporter construct, which records the level of Notch signalling immediately downstream of receptor activation rather than further downstream in the signalling cascade, for example at the level of Hes and Hey proteins (Fig. 1B). […] The reporter construct carries piggy-bac sequences at both ends of the promoter-reporter cassette as well as cSH4 insulator elements to reduce transcriptional noise[21] and was transfected into HEK293T cells. To achieve a robust level of Notch receptor activity in the HEK293T reporter cell line and to confine the search for inhibitors to compounds affecting the receptor function and eliminating the need for ligand activation, a truncated ligand-independent version of the Notch1 receptor, mimicking an S2-cleaved Notch1 receptor (Notch1ΔE) and spontaneously activated by S3-cleavage[22] (Fig. 1C) was introduced into the cell line carrying the reporter construct (Fig. 1D). In addition, an HSV-TK-renilla luciferase plasmid was introduced into the cell line as an internal control for normalisation of the reporter expression (Fig. 1D).
A de novo Notch reporter construct, composed of six dimeric CSL binding sites linked to a basic b-globin promoter and followed by a firefly luciferase gene and a PEST degradation domain was synthesised (GeneArt). The construct was stably introduced into HEK293T cells, and zeocin (0.1 mg/ml) or Puromycin (0.05 mg/ml (ThermoFisher, cat #R25001, #A1113803) were used as selection markers. A clonal cell line (clone #A1) with robust renilla expression and enhanced firefly luciferase expression upon transient transfection of Notch1 ICD or Notch1ΔE constructs was selected, and a UB6 promoter-Notch1DE construct was stably introduced into this cell line using Blasticidin (0.1 mg/ml; ThermoFisher, cat #A1113903) as a selection marker. Stable cell lines were generated by serial dilution and only clonal colonies were selected for further evaluation. To measure luciferase reporter activity, cells were washed in cold PBS, detached, and collected in pre-warmed cell culture medium and centrifugated for five min at 200xg. The cell pellet was resuspended in medium, cells were counted, and 4,000 cells were seeded in each well of a white 384 well plate (Corning #3670) in 20 µl medium containing either DMSO or the GSI DAPT (N-[N-(3,5-Difluorophenacetyl)-L-alanyl]-S-phenylglycine t-butyl ester, Sigma-Aldrich, cat #565784-M) and incubated for 24 h. The efficacy of the reporter gene system was determined by monitoring the level of luciferase activation in the absence or presence of different amounts of DAPT in several cell clones. Luciferase activity was assessed using the dual-GLO luciferase detection kit from Promega (cat # E2920), following the manufacturer’s instructions. A minimum of two technical replicates were measured per clone using a SpectraMaxi3 plate reader (Molecular Devices). Reporter activity of different clones and in response to DAPT was assessed by normalising firefly (Notch activity) to renilla luciferase signals. Normalised signals of individual clones cultivated in DMSO were then compared to corresponding signals generated with DAPT-treated cells. The cell clone with the strongest signal to control ratio (DMSO to DAPT) was then selected for further exploration (clone #A1-11).
37,966 compounds were spotted by the compound center at SciLifeLab (https://www.scilifelab.se/) on a total of 120 plates (Greiner #781080) at a fixed concentration of 10 µM and the screening process spanned five consecutive sessions. The layout of each plate contained one column for DMSO and one for DAPT controls to determine the quality and reliability of the data. DAPT controls were spotted at 10 µM and DMSO was spotted in an equimolar volume. In addition, plates spotted with only DMSO were utilized to investigate the impact of plate effects before and after each session. […]

[1] = Homo sapiens, HEK-293T, 14p Notch assay DR, bottom constrained to Emax of positive control DAPT, read-out: approximated IC50
[2] = Homo sapiens, HEK-293T, 14p Notch assay DR, log10 value, bottom constrained to Emax of positive control DAPT, read-out: approximated LogIC50 (converted)
[3] = Homo sapiens, HEK-293T, 14-point dose-response, Fig. 4, read-out: approximated IC50, Notch reporter assay

Row | SMILES | Hill-slope (γ-secretase complex) | AUC APP (γ-secretase complex) | Bottom (Emax) (Notch signalling; 14p Notch assay DR) | IC50 (Notch signalling; [1]) | IC50 (Notch signalling; [2]) | AUC Notch (Notch signalling) | curve fit information (γ-secretase complex) | also measured
1 | COc1cc(Nc2nc(-c3cccc(NC(C)=O)c3)cn3ccnc23)cc(OC)c1OC [CBK038093] | 0.0389 | 493.6 | 21.1 | 5.6 µM | 5.01 µM | 304.0 | – | remaining activity at 10 µM (γ-secretase complex; 24 h, 10µM, APP-C99 counter assay, read-out: 3p-DR in % of DMSO counter): 180%; remaining activity at 25 µM (γ-secretase complex; 24 h, 25µM, APP-C99 counter assay, read-out: 3p-DR in % of DMSO counter): 242%; remaining activity at […] (γ-secretase complex; 24 h, 1,25µM, APP-C99 counter assay, read-out: 3p-DR in % of DMSO counter): 132%; activity at 10 µM (Notch signalling; Homo sapiens, HEK-293T, 10 µM, primary screen, 24 h, unit from Fig. 2 legend, read-out: Primary screen at 10 µM (Notch reporter signal)): 46.2%; activity at 10 µM (Notch signalling; Homo sapiens, HEK-293T, 10 µM, three-dose confirmation screen, unit from Fig. 2 legend, read-out: Hit confirmation at 10 µM (Notch reporter signal)): 56.1%; activity at 10 µM (Notch signalling; Homo sapiens, HEK-293T, 10µM, 3-point DR confirmation screen, Notch reporter assay, read-out: inhibitor ratio in % of DMSO in 3 point DR): 56.1%; activity at 10 µM (Notch signalling; Homo sapiens, HEK-293T, 10 µM, sheet conf vs counter 10 µM, same values as 3-point DR confirmation screen, read-out: Confirmation screen): 56.1%; activity at 25 µM (Notch signalling; Homo sapiens, HEK-293T, 25µM, 3-point DR confirmation screen, Notch reporter assay, read-out: inhibitor ratio in % of DMSO in 3 point DR): 41.5%; activity at 25 µM (Notch signalling; Homo sapiens, HEK-293T, 25 µM, Notch reporter 3-point dose-confirmation assay, sheet "conf vs counter 25 µM", read-out: Confirmation screen): 41.5%; activity (Notch signalling; Homo sapiens, HEK-293T, 1,25µM, 3-point DR confirmation screen, Notch reporter assay, read-out: inhibitor ratio in % of DMSO in 3 point DR): 96.6%
2 | Fc1ccc2[nH]c3c(c2c1)CCOC31CCN(Cc2ccccc2-c2ccccc2)CC1 [CBK039913] | 0.0284 | 726.2 | 44.4 | 1.2 µM | 1.26 µM | 588.0 | – | –
3 | COc1ccc2[nH]c3c(c2c1)CCOC31CCN(Cc2ccccc2-c2ccccc2)CC1 [CBK040114] | 0.0153 | 713.8 | 45.9 | 1.3 µM | 1.26 µM | 576.0 | – | IC50 (Notch signalling; [3]): 1.4 µM
4 | c1ccc(-c2ccccc2CN2CCC3(CC2)OCCc2c3[nH]c3ccccc23)cc1 [CBK040201] | 0.0232 | 739.3 | 50.0 | 2 µM | 2 µM | 592.0 | – | –
5 | Cc1ccccc1CN1CCC2(CC1)OCCc1c2[nH]c2ccc(F)cc12 [CBK040334] | 0.00509 | 704.0 | ~ 28,93 | 8.9 µM | 7.94 µM | 607.0 | IC50 indeterminate | IC50 (Notch signalling; [3]): > 5 µM
6 | Cc1ccccc1CN1CCC2(CC1)OCCc1c2[nH]c2ccc(Br)cc12 [CBK040353] | 0.0279 | 724.9 | 48.2 | 1.7 µM | 1.58 µM | 584.0 | – | IC50 (Notch signalling; [3]): 1.8 µM
7 | Cc1ccccc1CN1CCC2(CC1)OCCc1c2n(C)c2ccccc12 [CBK040366] | 4.29e-13 | 658.0 | 104.0 | – | – | 632.0 | IC50 indeterminate | approximated IC50, Notch reporter assay (Notch signalling; 14-point dose-response, Fig. 4): Indeterminate
8 | COc1cc(Nc2cncc(-c3cccc(N)c3)n2)cc(OC)c1OC [CBK065120] | 0.0798 | 545.0 | 47.4 | 23 µM | 25.1 µM | 329.0 | – | –
9 | COc1cc(Nc2cncc(-c3cccc(NC(C)=O)c3)n2)cc(OC)c1OC [CBK065162] | 0.0468 | 573.8 | 40.8 | 27 µM | 25.1 µM | 335.0 | – | –
10 | COc1cc(Nc2cncc(-c3cccc(N(C)C)c3)n2)cc(OC)c1OC [CBK065722] | -0.00462 | 501.6 | 82.6 | > 40 µM | > 40 µM | 354.0 | – | –
11 | COc1ccccc1-c1cn2ccnc2c(Nc2cc(OC)c(OC)c(OC)c2)n1 [CBK066148] | 0.0659 | 523.0 | 58.8 | 27 µM | 25.1 µM | 336.0 | – | –
12 | CC(=O)Nc1cccc(-c2cn3ccnc3c(Nc3ccccc3)n2)c1 [CBK066160] | -4.6e-12 | 549.2 | 87.0 | – | – | 362.0 | IC50 indeterminate | –
13 | COc1cc(-c2cn3ccnc3c(Nc3ccccc3)n2)cc(OC)c1OC [CBK066200] | -8.75e-10 | 496.5 | 65.6 | 36 µM | 39.8 µM | 329.0 | IC50 indeterminate | –
14 | COc1cc(Nc2nc(-c3ccc(Cl)cc3)cn3ccnc23)cc(OC)c1OC [CBK066238] | 0.0221 | 492.9 | 82.4 | – | – | 336.0 | – | –
15 | COc1ccc(-c2cn3ccnc3c(Nc3ccccc3)n2)cc1 [CBK066257] | -3.32e-11 | 515.8 | 91.1 | – | – | 403.0 | IC50 indeterminate | –
16 | COc1cc(Nc2nc(-c3cccc(Cl)c3)cn3ccnc23)cc(OC)c1OC [CBK066271] | -16.9 | 485.9 | 87.7 | – | – | 348.0 | – | –
17 | COc1cc(Nc2nc(-c3cccc(O)c3)cn3ccnc23)cc(OC)c1OC [CBK066361] | -3.83e-12 | 487.2 | 55.6 | 12 µM | 12.6 µM | 316.0 | IC50 indeterminate | –
18 | CC(=O)Nc1cccc(-c2cn3ccnc3c(Nc3ccc(N4CCOCC4)cc3)n2)c1 [CBK066362] | 0.3 | 828.0 | 95.3 | – | – | 529.0 | – | –
